In patent publication US11185527B2, “Methods and compositions relating to steroid hormone receptor-dependent cancers” (Wayne State University, priority 2017, dated 2021):
Where “and” joins values, the source holds several entries; their conditions need not be identical. Identical values can stand only once.

Experiments:
[1] = system: hormone-independent promoter activation by the splice variant AR-V7; test: Gal4-ELK1 reporter activation by AR-V7 in transfected HeLa cells; assay type: cell-based; conditions: 10 uM or 20 uM
Procedure: FIG. 10 is a graph showing results of co-transfection of HeLa cells with the Gal4-TATA-Luc construct and the Gal4-ELK1 fusion protein expression plasmid. The cells were also co-transfected with either the AR-V7 expression plasmid (pLVX-AR-V7) or the corresponding vector plasmid (pLVX). At the time of transfection with AR-V7, the cells were also treated with KCI807 (10 uM or 20 uM) or with the vehicle control. Promoter activity was measured in terms of reporter luciferase activity. In all panels, the error bars represent standard deviation of experimental triplicates. *P<0.05
Hela Cells were plated in a 24-well plate at a concentration of 75,000 cells/well in antibiotic-free red DMEM. The following day the cells were transfected with a total of 300 ng of plasmid DNA/well using Lipofectamine 2000. The cells were incubated for 24h then lysed using luciferase assay lysis buffer 5X from Promega. The luciferase activity of the cell lysates were measured using firefly substrate from Promega and a luminometer (Lumat LB9501, Berthold, Wildbad, Germany).
The relatively higher concentrations of the compound required for this inhibition is likely because AR-V7 was overexpressed in the assay system.

[2] = system: 22Rv1 human CRPC xenograft; test: 22Rv1 CRPC tumor xenograft in male SCID mice, tumor growth; conditions: KCI807 IP 250-300 mg/kg every other day; enzalutamide PO 50-60 mg/Kg daily; from day 3
[3] = system: H1650 (lung adenocarcinoma cells), AR-negative; test: Cell monolayer growth assay (MTT); assay type: cell-based
Procedure: (§1) FIG. 12D is a graph showing the effect of KCI807 on in vitro growth of AR-negative cell line H1650 cells measured by the MTT assay. All values were plotted relative to the Day zero value. Cells were trypsinized and 3000-4000 cells/well were seeded in 96-well plates coated with poly-D-lysine. The cells were seeded in phenol red-free medium supplemented with 10% FBS, 100 units/ml penicillin, 100 μg/ml streptomycin, 2 mM L-glutamine mixture and sodium pyruvate (1 mM) for LNCaP cells and phenol red-free medium supplemented with 10% FBS, 100 units/ml penicillin, 100 μg/ml streptomycin and 2 mM L-glutamine mixture for VCaP, 22Rv1, DU145, HeLa, HEK293 and H1650 cells. The cells were grown at 37° C. in 5% CO2. Twenty four hours after seeding in the 96-well plates, the cells were treated with the indicated concentration of KCI807 or DMSO (vehicle). The cells were re-treated on Day 3 by removing half the volume of medium and replacing it with fresh treated medium. Cell viability was determined using the MTT assay from day zero until day five. MTT (10 μL, 5 mg/mL) was added to each well and incubated for 2h at 37° C. The formazan crystal sediments were dissolved in 100 μL of DMSO, and the absorbance at 570 nm was measured using the BioTek Synergy 2 Microplate Reader (BioTek, Winooski, Vt.). The assay was conducted in sextuplicate wells and values were normalized to day zero.

[4] = Metabolism in pooled human liver microsomes (HLM) with or without NADPH; assay type: in vitro ADME; conditions: HLM 0.05 mg/ml, 30 minutes, 37° C.
Procedure: BD UltraPool human liver microsomes (HLM) 150 and the NAPDH regenerating system solution A and B were obtained from Corning Inc. Pooled HLM were used to determine percentage of metabolism of 5,3′-Dihydroxyflavone and 5,3-Dihydroxy-4′-methylflavone. The compounds (20 μM) were co-incubated with HLM (0.05 mg/ml) in the presence or absence of NAPDH for 30 minutes in a 37° C. water bath. At the end of the microsome reaction, the reaction was quenched with 1000 μl ethyl acetate. The mixture was vortexed and centrifuged at 13,000 rpm for 15 minutes, the supernatant was then subjected to high-performance liquid chromatography with tandem mass spectrometry ([…]) analysis.

[5] = male, SCID, mouse, in vivo, ip, 250 mg/kg, 6 h
BT474 cells = test: Breast cancer cell growth, MTT assay; assay type: cell-based
Procedure: (§2) Twenty four hours after plating the cells, they were treated with the indicated concentrations of the compound.

MCF-7 cells = test: Breast cancer cell growth, MTT assay; assay type: cell-based
Procedure: as §2

T47D cells = test: Breast cancer cell growth, MTT assay; assay type: cell-based
Procedure: as §2

[6] = system: HeLa (cervical cancer cells), AR-negative; test: Cell monolayer growth assay (MTT); assay type: cell-based
Procedure: as §1, with “FIG. 12B” for “FIG. 12D”, “line HeLa” for “line H1650”

ELK1 = molecular target: T1, ELK1 (Homo sapiens, UniProt P19419); test: Surface plasmon resonance, compound binding to immobilized ELK1; conditions: SPR
T1 construct: His; made in house; host or cells: baculovirus infected Sf9 cells
T1 sequence (P19419 whole entry): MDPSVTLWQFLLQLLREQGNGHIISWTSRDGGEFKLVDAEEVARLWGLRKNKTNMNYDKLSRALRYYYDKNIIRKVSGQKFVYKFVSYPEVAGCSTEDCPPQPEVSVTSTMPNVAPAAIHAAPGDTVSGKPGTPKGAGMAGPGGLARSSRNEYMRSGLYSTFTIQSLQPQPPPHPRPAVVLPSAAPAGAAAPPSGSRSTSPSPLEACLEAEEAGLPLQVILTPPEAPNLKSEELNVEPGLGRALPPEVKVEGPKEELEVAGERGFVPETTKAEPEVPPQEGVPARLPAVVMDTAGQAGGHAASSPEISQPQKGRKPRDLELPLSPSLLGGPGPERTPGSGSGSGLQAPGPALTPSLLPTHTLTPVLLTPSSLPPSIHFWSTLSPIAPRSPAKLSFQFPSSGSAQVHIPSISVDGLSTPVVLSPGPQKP

O=c1cc(-c2cccc(O)c2)oc2cccc(O)c12 [KCI807, 5,3′-dihydroxyflavone]
inhibition of promoter activation by AR-V7 [1]: inhibited | tumor growth inhibition, 22Rv1 xenograft [2]: inhibited | growth of H1650 cells [3]: did not appreciably affect the growth | compound concentration after HLM incubation, Control (absence of NADPH), replicate [4]: 0.973 µmol/L and 0.981 µmol/L and 1.006 µmol/L | compound concentration after HLM incubation, NADPH treated, replicate [4]: 0.796 µmol/L and 0.725 µmol/L and 0.863 µmol/L | mean compound concentration, Control (absence of NADPH) [4]: 0.986 µmol/L | mean compound concentration, NADPH treated [4]: 0.795 µmol/L | percentage metabolized (%) ([4]; NADPH): 19.4% | plasma level of unmetabolized compound (median), Day 11 [5]: 387 nM | plasma level of unmetabolized compound (median), Day 19 [5]: 70 nM | growth of BT474 cells (BT474 cells): growth inhibitory | growth of MCF-7 cells (MCF-7 cells): growth inhibitory | growth of T47D cells (T47D cells): growth inhibitory | growth of HeLa cells [6]: did not appreciably affect the growth | binding to immobilized ELK1 (ELK1): did not bind
